Results on 87 compounds are retold here after PubChem BioAssay AID1645848.

Each structure is given as a SMILES string. Values after ≈ are worked out from the molar mass of the structure shown.

The conditions of this data set: buffer; pH 7.4; 6.0 h; 150.0 µM.
Broadly, the solubility (kinetic) is solubility judged after dilution from a stock solution rather than from solid. In turn, `O=[N+]([O-])c1cccnc1N/N=C/c1ccccc1O` registered a solubility (kinetic) below 1 µg/mL.
On to `Cc1ccc(S(=O)(=O)Nc2cnccc2C(=O)Nc2nc(-c3ccccc3F)cs2)cc1`, for which the solubility (kinetic) was below 1 µg/mL.
The figure for `Cc1ccc(S(=O)(=O)Nc2cnccc2C(=O)NCc2ccccc2)cc1` is above 56 µg/mL.
The figure for `Cc1cccc(-n2cnc3cc(C(=O)N4CCC(Br)CC4)ccc32)c1` is 35.2 µg/mL (≈ 88.3 µM).
The figure for `Fc1cccc(CN2CCNc3cc(Nc4ccccc4)ncc3C2)c1` is 27.3 µg/mL (≈ 78.3 µM); for `NC(=O)C1CCN(c2nc(-c3ccc4c(c3)OCCO4)cs2)CC1` it is 34.6 µg/mL (≈ 100 µM).
As for `Nc1nc2c(s1)C(c1ccc(F)c(F)c1)CC(=O)N2` (configuration not stated), the kinetic solubility was above 42 µg/mL.
Under `COc1ccc(-c2ccc3ncc(Nc4cccnc4OC)n3n2)cn1` stands 5.33 µg/mL (≈ 15.3 µM); under `Cc1ccc(-c2cc(C(=O)Nc3ccc(S(=O)(=O)NCc4nccs4)cc3)c3ccccc3n2)cc1C`, 1.66 µg/mL (≈ 3.14 µM); under `CS(=O)(=O)c1ccc(-c2cnc(NCc3ccco3)n3cnnc23)cc1`, above 37 µg/mL.
Compound `CCc1ccccc1-n1c(SCC(=O)Nc2ccc(C)cc2)nc2n[nH]c(C)c2c1=N` showed a kinetic solubility below 1 µg/mL.
Under `Cc1cnc(-c2ccccc2C(C)C)nc1NCC1CN(c2cccnc2)C1` stands 36.3 µg/mL (≈ 97.2 µM); under `COc1ccc(C(=O)NC2CCN(c3cnn(CC4CC4)c(=O)c3)CC2)cc1`, 8.61 µg/mL (≈ 22.5 µM).
The figure for `CC(=O)NC1CCN(c2nc(-c3ccc(Br)cc3)cs2)CC1` is 5.01 µg/mL (≈ 13.2 µM); for `CN(C(=O)COC(=O)c1csc(NCc2ccccc2)n1)c1ccccc1` it is 26.4 µg/mL (≈ 69.1 µM).
`COc1ccc(N(C)C(=O)c2cc3c(s2)-c2ccccc2OC3)cc1`: the kinetic solubility is below 1 µg/mL.
The figure for `O=C(CCCCCCC(=O)Nc1ccccc1)NO` is above 39 µg/mL; for `Cc1ccc(-c2cc(C(=O)Nc3ccc(-n4cncn4)cc3)c3ccccc3n2)cc1C` it is below 1 µg/mL.
Compound `COCCNCc1ccc(-c2cc3nccc(Oc4ccc(NC(=O)C5(C(=O)Nc6ccc(F)cc6)CC5)cc4F)c3s2)nc1` registered a solubility (kinetic) below 1 µg/mL.
Under `OC(CCN1CCCCC1)c1ccc(-c2ccccc2)cc1` (configuration not stated) stands above 44 µg/mL.
Under `O=C(c1ccco1)N1CCN(c2nc(-c3ccc(Br)cc3)cs2)CC1` stands 2.3 µg/mL (≈ 5.5 µM); under `O=C(Nc1ccc(C(=O)N2CCCC2)cc1)c1ccccc1F`, above 46 µg/mL; under `Fc1ccc(Nc2nc(-c3ccnc4ccccc34)nc3ccccc23)cc1F`, below 1 µg/mL.
Under `COc1cccc(-n2ncc3c2CCCC3NC(=O)c2ccccn2)c1` (configuration not stated) stands above 51 µg/mL; under `Cc1cc2ccccc2n1CC(=O)NC1CCCCC1`, 3.41 µg/mL (≈ 12.6 µM).
Turning to `COc1ccc(Nc2cnc3ccc(-c4ccc(OC)c(OC)c4)nn23)cc1`, the kinetic solubility is below 1 µg/mL.
Under `c1ccc(CNc2cc3c(cn2)CN(Cc2cccnc2)CCN3)cc1` stands 36.5 µg/mL (≈ 106 µM); under `CCc1ccc2ncc(C(=O)c3ccc(C)c(C)c3)c(N3CCC(C(N)=O)CC3)c2c1`, 2.27 µg/mL (≈ 5.47 µM); under `Cc1ccc(-c2cc(C(=O)Nc3ccc(-n4cccn4)cc3)c3ccccc3n2)cc1C`, below 1 µg/mL.
As to `O=C(Nc1nc(-c2ccccc2)cs1)c1ccncc1NS(=O)(=O)c1ccc(-c2ccccc2)cc1`, the solubility (kinetic) is below 1 µg/mL.
Under `CC(=O)N1CCc2c(sc3c2c(=O)n(-c2ccccc2)c(=O)n3Cc2cccc(C(F)(F)F)c2)C1` stands 10 µg/mL (≈ 20.1 µM); under `CC(C)NC(=O)N1C[C@@H]2C[C@H](C1)c1ccc(-c3cccc(C(F)(F)F)c3)c(=O)n1C2`, above 93 µg/mL.
Take `O=C(Nc1ccc(Oc2ccnc3[nH]ccc23)c(F)c1)c1cccn(-c2ccc(F)cc2)c1=O`: the kinetic solubility was below 1 µg/mL.
The figure for `C=CCON=C(C[C@H]1O[C@@H]2O[C@]3(C)CC[C@@H]4[C@H](C)CC[C@@H]([C@H]1C)[C@@]24OO3)[C@H]1O[C@@H]2O[C@]3(C)CC[C@H]4[C@H](C)CC[C@@H]([C@@H]1C)[C@@]24OO3` is 26.6 µg/mL (≈ 42.1 µM); for `Cc1nc2sccn2c(=O)c1S(=O)(=O)Nc1ccc(N2CCN(C)CC2)cc1` it is above 62 µg/mL.
Under `CN1C(=O)c2ccccc2[S@](=O)c2ccc(C(=O)NCCN3CCCC3)cc21` stands above 59 µg/mL.
Under `Cc1cccc(OCC(=O)Nc2ccc3nc(Nc4cccc(Cl)c4)cc(C)c3c2)c1` stands below 1 µg/mL.
On to `N=c1c2c(ccn1CCc1ccccc1)Oc1ccc3ccccc3c1C2c1ccccc1` (configuration not stated), for which the kinetic solubility is below 1 µg/mL.
`Ic1ccccc1CNC1C2CCN(CC2)C1C(c1ccccc1)c1ccccc1` (configuration not stated) showed a solubility (kinetic) above 75 µg/mL.
With `COc1ccc(-n2nc(C3CCCN(C(=O)Nc4ccccc4)C3)[nH]c2=O)cc1` (configuration not stated), the solubility (kinetic) was found to be 34.9 µg/mL (≈ 88.8 µM).
Under `CCOC(=O)c1[nH]c(C)c(CCC(=O)N2CCN(c3cc(Cl)ccc3C)CC2)c1C` stands 2.74 µg/mL (≈ 6.35 µM).
Under `CC(C)(N)C(=O)N[C@H](COCc1ccccc1)C(=O)N1CCC2(CC1)CN(S(C)(=O)=O)c1ccccc12` stands above 78 µg/mL; under `Cc1ccc(SC2=NS(=O)(=O)c3ccccc32)c(C)c1`, below 1 µg/mL; under `COc1ccc(C(=O)c2sc(Nc3cccc(Cl)c3)nc2N)cc1`, below 1 µg/mL.
The figure for `Cc1cc(-c2nnc3n2CCCCC3)c(C)n1-c1ccc(Cl)c(Cl)c1` is 31.6 µg/mL (≈ 84.1 µM); for `CC1CN(c2ccc(Nc3nc(-c4ccncc4)nc4ccccc34)cc2F)CC(C)O1` (configuration not stated) it is below 1 µg/mL; for `O=c1cc(N2CCOCC2)oc2c1ccc1ccccc12` it is 16.7 µg/mL (≈ 59.5 µM).
`O=[S+]([O-])(Nc1ccccc1)c1ccc(NCc2cccc(C(F)(F)F)c2Cl)cc1` gave a kinetic solubility below 1 µg/mL.
The figure for `Cc1nsc(N)c1C(=O)N(C)CCOc1ccccc1Cl` is above 48 µg/mL; for `Nc1ncnc(N2CCc3ccccc32)c1[N+](=O)[O-]` it is below 1 µg/mL.
The figure for `CCc1ccc(-n2nc(C)c3c2NC(=O)CSC3c2ccccc2C)cc1` (configuration not stated) is 1.11 µg/mL (≈ 2.95 µM); for `COc1cc(N2CCC(N3CCN(C)CC3)CC2)ccc1Nc1ncc(Cl)c(Nc2ccccc2P(C)(C)=O)n1` it is above 86 µg/mL.
The figure for `CCn1c(=O)cc(OCC(=O)N2CCN(c3cccc(Cl)c3)CC2)c2ccccc21` is 2.64 µg/mL (≈ 6.2 µM).
`Oc1ccc(CNc2ccccc2F)c2cccnc12` displayed a solubility (kinetic) of 4.4 µg/mL (≈ 16.4 µM).
The figure for `COc1ccc(OC)c(-c2nnc3n2N=C(c2c(OC)cccc2OC)CS3)c1` is 2.63 µg/mL (≈ 6.37 µM); for `COc1ccc(C[C@@H]2C(=O)N[C@H](C)C(=O)N(C)[C@@H]3C(=O)N(C)[C@@H](Cc4ccc(O)c(c4)Oc4ccc(cc4)[C@H]3O)C(=O)N[C@@H](C)C(=O)N[C@H](C)C(=O)N2C)cc1` it is 96.4 µg/mL (≈ 125 µM); for `Cn1c(=O)c2c(-c3ccc(Cl)cc3)n(CCc3ccccc3)cc2n(C)c1=O` it is 2.15 µg/mL (≈ 5.46 µM).
The figure for `c1ccc2c(N3CCOCC3)nc(-c3ccncc3)nc2c1` is above 43 µg/mL; for `Nc1c(C(=O)N2CCCCC2)sc(=S)n1-c1ccccc1` it is 9.32 µg/mL (≈ 29.2 µM); for `CC1=Nc2cc(C(=O)NCc3ccccc3Cl)ccc2Sc2c(C)ccc(C)c21` it is below 1 µg/mL.
The figure for `COCCCOc1ccnc(CS(=O)c2nc3ccccc3[n-]2)c1C` (configuration not stated) is 19.2 µg/mL; for `O=C(Nc1nc(-c2ccccc2)cs1)c1ccncc1NS(=O)(=O)c1ccccc1` it is 21.2 µg/mL (≈ 48.5 µM); for `CN1C(=O)C(=O)N2C(=C[C@]3(c4c[nH]c5ccccc45)c4ccccc4N[C@H]23)C1=O` it is below 1 µg/mL.
`CCN1C(=O)c2ccccc2[S@](=O)c2ccc(C(=O)NCc3ccc(C#N)cc3)cc21` registered a solubility (kinetic) of 29.4 µg/mL (≈ 68.5 µM).
The figure for `CCOc1ccc(CCNC(=O)c2cc3ccccc3o2)cc1OCC` is 8.88 µg/mL (≈ 25.1 µM); for `Cc1cc(NC(=S)N2CCN(c3cccc(C(F)(F)F)c3)CC2)nc2ccccc12` it is 4.33 µg/mL (≈ 10.1 µM); for `CC(C)NC(=O)C1CCN(C(=O)c2cc3sccc3n2Cc2ccc(Cl)cc2)CC1` it is below 1 µg/mL.
Compound `Cc1cccc(N2CCN(C(=O)c3ccc4c(c3)C(O)CCCCCN4C)CC2)c1` (configuration not stated) showed a solubility (kinetic) of 14.8 µg/mL (≈ 36.3 µM).
The figure for `Cc1cc(Cl)ccc1COc1ccnn1-c1cc(C(=O)O)ccn1` is above 51 µg/mL; for `CC(C)(O)CNc1nc(Nc2ccnc(C(F)(F)F)c2)nc(-c2cccc(C(F)(F)F)n2)n1` it is 11 µg/mL (≈ 23.2 µM); for `Cc1ccccc1C(=O)N1CCc2cc(-c3nc(NC(=O)Cc4ccc5ccccc5c4)sc3C)ccc21` it is below 1 µg/mL.
Compound `CCOc1ccc(CCNC(=O)c2cc3ccccc3n2Cc2cc(C)cc(C)n2)cc1OCC` yielded a kinetic solubility below 1 µg/mL.
Under `CSc1ccc(/C=C/c2nc3ccccc3n2S(=O)(=O)c2cccc(Cl)c2)cc1` stands below 1 µg/mL; under `COc1cccc(CNc2ccc(S(=O)(=O)Nc3ccc(N4CCNCC4)nc3)cc2)c1O`, 55.9 µg/mL (≈ 119 µM); under `O=C(Nc1ccc(S(=O)(=O)N2CCN(Cc3ccccc3)CC2)cc1)c1cnccn1`, below 1 µg/mL.
`COc1ccc(-c2ccc(Nc3nc(-c4ccncc4)nc4ccccc34)cc2F)cc1F` gave a solubility (kinetic) below 1 µg/mL.
Under `CC(C)(O)CCc1ccc(OCc2cc(-c3cccc(OC(F)F)c3)c3ncccc3c2)cc1` stands below 1 µg/mL; under `CNC(=O)C1CCN(C(=O)c2ccc(-c3ncc4cnc(-c5ccccc5)cn34)cc2)CC1`, 40.8 µg/mL (≈ 92.7 µM).
The figure for `COC(=O)c1ccc([C@H]2c3[nH]c4ccccc4c3C[C@H](C(=O)OC)N2C(=O)CCl)cc1` is below 1 µg/mL.
On to `COc1ccc(C2CC(=O)Nc3nc(N)sc32)cc1OC` (configuration not stated), for which the kinetic solubility was determined as 30.5 µg/mL (≈ 99.8 µM).
Under `CCc1ccc2oc(=O)cc(CN3CCN(c4ccccc4F)CC3)c2c1` stands below 1 µg/mL; under `CCOC(=O)C1(Cc2ccccc2C(F)(F)F)CCN(C2CCN(C(C)C)CC2)CC1`, 55 µg/mL (≈ 125 µM).
Under `COc1ccc(NC(=O)C23CC4CC(CC(C4)C2)C3)cc1[S+](=O)([O-])Nc1ccc(Br)cc1` stands below 1 µg/mL.
Under `NC(=O)C1CCN(c2nc(-c3ccc4c(c3)OCO4)cs2)CC1` stands above 49 µg/mL.
On to `CC(=O)N1CCC(NC(=O)c2nc(-c3ccccc3)cc3[nH]ccc23)CC1`, for which the kinetic solubility was above 80 µg/mL.
`Nc1ccc(-c2cccc3c(=O)cc(N4CCOCC4)oc23)cc1` returned a kinetic solubility above 48 µg/mL.
Under `Cc1ccc(-c2nnc(N3CCC(C(N)=O)CC3)s2)cc1` stands 14.6 µg/mL (≈ 48.3 µM).
